From patent US4861778A, “2,3-dihydrophthalazine-1,4-diones” (priority 1986, dated 1989)
Read-outs that look alike come from different tables or passages of the source.

Tested on: serum cholesterol and serum triglyceride
Test: Hypolipidemic activity of 2,3-dihydrophthalazine-1,4-diones in normal male mice (Example 11, Table II)
Format: in vivo, CF1 male mice
Settings: Mus musculus, ip
Experimental: Hypolipidemic Activity of 2,3-Dihydrophthalazine-1,4-Diones in Normal Male Mice
Each of the prepared compounds was administered intraperitoneally, in a dosage of 20 milligrams per kilogram of body weight per day, to a group of six CF1 male mice, each weighing approximately 25 grams, for 16 days. On Days 9 and 16 blood was obtained from each of the tested mice by tail vein bleeding. The blood serum so obtained was separated by centrifugation for three minutes. […] Serum triglyceride levels were obtained on Day 16 by use of the Bio-Dynamics/bm Triglyceride Kit.
In addition to the above-described treated mice, an untreated control group of six mice were similarly tested on Days 9 and 16 to determine their serum cholesterol and serum triglyceride blood levels.

[1] = 216 h, CF1 male mice, 20 mg/kg/day intraperitoneally, Day 9, read-out: Serum Cholesterol Day 9, percent control ± standard deviation
[2] = 384 h, CF1 male mice, 20 mg/kg/day intraperitoneally, Day 16, read-out: Serum Cholesterol Day 16, percent control ± standard deviation
[3] = 384 h, CF1 male mice, 20 mg/kg/day intraperitoneally, Day 16, read-out: Serum Triglyceride Day 16, percent control ± standard deviation

SMILES	response vs control in vivo at 20 mg/kg/day [1]	response vs control in vivo at 20 mg/kg/day [2]	response vs control in vivo at 20 mg/kg/day [3]	response vs control in vivo at 20 mg/kg/day (216 h, read-out: Serum Cholesterol Day 9, percent control ± standard deviation)	response vs control in vivo at 20 mg/kg/day (384 h, read-out: Serum Cholesterol Day 16, percent control ± standard deviation)	response vs control in vivo at 20 mg/kg/day (384 h, read-out: Serum Triglyceride Day 16, percent control ± standard deviation)
O=c1[nH]n(-c2ccc(Cl)cc2)c(=O)c2ccccc12 [Compound 24, 2-(4'-chlorophenyl)-2,3-dihydrophthalazine-1,4-dione]	60 ± 3%	54 ± 4%	59 ± 5%	–	–	–
O=c1[nH][nH]c(=O)c2c(Cl)cccc12 [Compound 12, 5-Chloro-2,3-Dihydrophthalazine-1,4-Dione]	72 ± 5%	69 ± 4%	86 ± 5%	–	–	–
CCCCn1[nH]c(=O)c2ccccc2c1=O [Compound 8, 2-n-butyl-2,3-dihydrophthalazine-1,4-dione]	59 ± 2%	58 ± 3%	73 ± 4%	–	–	–
COc1nn(C)c(=O)c2ccccc12 [Compound 3, 2-Methyl-4-Methoxyphthalazine-1(2H)-One]	84 ± 6%	81 ± 5%	64 ± 5%	–	–	–
CCCCOc1nn(CCCC)c(=O)c2ccccc12 [Compound 9]	65 ± 4%	61 ± 3%	66 ± 3%	–	–	–
O=c1[nH]n(-c2ccccc2)c(=O)c2ccccc12 [Compound 21, 2-Phenyl-2,3-Dihydrophthalazine-1,4-Dione]	–	–	–	59 ± 5%	58 ± 4%	65 ± 3%
Cc1ccccc1-n1nc(O)c2ccccc2c1=O [Compound 25]	82 ± 7%	66 ± 5%	76 ± 6%	–	–	–
Cc1ccc2c(=O)[nH][nH]c(=O)c2c1 [Compound 15, 6-methyl-2,3-dihydrophthalazine-1,4-dione]	66 ± 8%	55 ± 4%	54 ± 4%	–	–	–
CCOC(=O)Cn1[nH]c(=O)c2ccccc2c1=O [Compound 19, 2-(1'-Carbethoxymethyl)-2,3-Dihydrophthalazine-1,4-Dione]	78 ± 6%	69 ± 5%	73 ± 4%	–	–	–
Cc1cccc2c(=O)[nH]nc(O)c12 [Compound 14]	80 ± 4%	75 ± 3%	73 ± 3%	–	–	–
O=c1[nH]nc(O)c2cc(Cl)ccc12 [Compound 13]	72 ± 4%	64 ± 5%	65 ± 4%	–	–	–
O=c1c2ccccc2c(O)nn1-c1cccc(Cl)c1 [Compound 23]	73 ± 4%	62 ± 3%	69 ± 5%	–	–	–
CCOc1nn(CC)c(=O)c2ccccc12 [Compound 5]	77 ± 5%	76 ± 4%	57 ± 3%	–	–	–
COc1cccc2c(=O)[nH]nc(O)c12 [Compound 16]	82 ± 5%	78 ± 3%	81 ± 4%	–	–	–
CC(=O)CCn1[nH]c(=O)c2ccccc2c1=O [Compound 20, 2-(3'-Oxobutyl)-2,3-Dihydrophthalazine-1,4-Dione]	72 ± 6%	59 ± 3%	70 ± 7%	–	–	–
COc1ccc2c(=O)[nH]nc(O)c2c1 [Compound 17]	77 ± 5%	76 ± 4%	69 ± 3%	–	–	–
CCCOc1nn(CCC)c(=O)c2ccccc12 [Compound 7]	68 ± 3%	69 ± 5%	69 ± 2%	–	–	–
Cc1cccc(-n2nc(O)c3ccccc3c2=O)c1 [Compound 26]	87 ± 6%	74 ± 4%	65 ± 3%	–	–	–
CCCCCOc1nn(CCCCC)c(=O)c2ccccc12 [Compound 11]	86 ± 6%	63 ± 4%	59 ± 3%	–	–	–
O=C(O)CCn1[nH]c(=O)c2ccccc2c1=O [Compound 18, 2-(2'-Carboxyethyl)-2,3-Dihydrophthalazine-1,4-Dione]	54 ± 6%	34 ± 3%	60 ± 4%	–	–	–
CCCCCn1nc(O)c2ccccc2c1=O [Compound 10]	74 ± 3%	71 ± 5%	55 ± 4%	–	–	–
CCn1[nH]c(=O)c2ccccc2c1=O [Compound 4, 2-Ethyl-2,3-Dihydrophthalazine-1,4-Dione]	71 ± 7%	58 ± 5%	59 ± 4%	–	–	–
CCCn1[nH]c(=O)c2ccccc2c1=O [Compound 6, 2-n-propyl-2,3-dihydrophthalazine-1,4-dione]	77 ± 6%	68 ± 5%	62 ± 2%	–	–	–
Cn1nc(O)c2ccccc2c1=O [Compound 2]	72 ± 5%	77 ± 3%	66 ± 4%	–	–	–
O=c1c2ccccc2c(O)nn1-c1ccccc1Cl [Compound 22]	72 ± 5%	67 ± 3%	68 ± 4%	–	–	–
Cc1ccc(-n2nc(O)c3ccccc3c2=O)cc1 [Compound 27]	89 ± 5%	73 ± 6%	57 ± 2%	–	–	–
